Reference: article PMC12703428, “Development of Granzyme A Turn‐ON Fluorescent Activity‐Based Probes” (Chembiochem, 2025)
Square brackets hold non-standard residues; d marks the D form. Ends that are not written are not given here. Oic = O=C(O)[C@@H]1C[C@@H]2CCCC[C@@H]2N1; Tic = O=C(O)[C@@H]1Cc2ccccc2CN1

Legend:
mouse GzmA (mGzmA) = target: T1, mouse GzmA (mGzmA) (Mus musculus, UniProt P11032); test: In-gel fluorescence labeling of mGzmA; type: biochemical; conditions: mGzmA 1 μM, 24 h, 37 °C; for Labeling of mGzmA (in-gel Cy5 fluorescence): probe 200 nM or 1 μM
T1 construct: CSB-EP010081MO for active, mature form; purchased Cusabio CSB-EP010081MO
T1 sequence (P11032 29-260): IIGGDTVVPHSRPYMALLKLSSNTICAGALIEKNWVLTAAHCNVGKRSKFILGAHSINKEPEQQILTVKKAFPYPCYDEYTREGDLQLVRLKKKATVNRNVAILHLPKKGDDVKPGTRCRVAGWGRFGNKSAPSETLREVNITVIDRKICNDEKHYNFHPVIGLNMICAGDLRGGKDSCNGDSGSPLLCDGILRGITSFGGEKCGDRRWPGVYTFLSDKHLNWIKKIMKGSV
Description: Figure 3 GzmA ABPs covalently and competitively label active human and mouse GzmA. […] Recombinant hGzmA (100 nM) was incubated with varying concentrations of each ABP at 37 °C. B) Competitive labeling of hGzmA. Recombinant hGzmA (100 nM) was preincubated with covalent inhibitors 1 or 2 (5 μM) for 2 h, followed by labeling with ABPs 3 –5 (50 nM) for 2 h at 37 °C. Note: Pro‐form of hGzmA (the first lane) is not effectively stained by SYPRO‐Ruby. C) Structure of qABP 6. D) Quenched natures of 5 and 6. […] F) Labeling of mGzmA (1 μM) with 5 and 6 (1 μM, 24 h, 37 °C). Protein samples were analyzed by SDS‐PAGE and in‐gel fluorescence scanning for Cy5 signal and SYPRO Ruby staining.
Sulfo-Cy5 N N P O 1 µM 100 nM
7 HN NH2 In-gel fluorescence: […]
mGzmA In-gel fluorescence: mGzmA In-gel fluorescence:
Supplementary Figure 1. (A) Chemical structure of qABP 7. (B) Labeling of mGzmA (1 µM, 24 h, 37 °C) and hGzmA (100 nM, 2 h, 37 °C) by 1 µM or 100 nM of 5, 6, and 7, respectively. (C) Labeling of mGzmA (1 µM, 24 h, 37 °C) by 200 nM of 5, 6, and 7. […] Protein samples were analyzed by SDS-PAGE and in-gel fluorescence scanning for Cy5 signal. […]
Briefly, hGzmA (50 nM) was incubated with either inhibitor 1 or 2 (200 nM), and GzmA fluorogenic substrate […] (100 µM) in 50 mM Tris, 150 mM NaCl, 0.01% Triton X-100 (pH 8) for 15 hr at 37 °C. Recorded fluorescence at Ex/Em: 380/460 nm for residual GzmA […]
Cat. No. CRL-2570) and 4T1 (ATCC Cat. No. CRL-2539) cells were cultured in RPMI supplemented with 10% fetal bovine serum (FBS), 1% penicillin/streptomycin (PS), and 2 mM L-glutamine, while HEK293T and MDA-MB-231 cells (ATCC Cat. No. HTB-26) were cultured in DMEM supplemented likewise as described above. […] The supernatant was collected, and protein concentration was measured using a Pierce BCA protein assay. […]
C. In-gel fluorescence imaging […]
Conditions for probe/inhibitor treatment for in-gel fluorescence analysis: Inhibitors and probes were incubated with active (or pro-) GzmA followed by treatment with 4X SDS reducing sample buffer. […]

neutrophil elastase (NE) = target: T2, neutrophil elastase (NE) (Homo sapiens, UniProt P08246); test: Cross-reactivity labeling, neutrophil elastase; type: biochemical; conditions: protease 100 nM, probe 100 nM, 2 h, 37 °C, in-gel fluorescence
T2 sequence (P08246 30-267): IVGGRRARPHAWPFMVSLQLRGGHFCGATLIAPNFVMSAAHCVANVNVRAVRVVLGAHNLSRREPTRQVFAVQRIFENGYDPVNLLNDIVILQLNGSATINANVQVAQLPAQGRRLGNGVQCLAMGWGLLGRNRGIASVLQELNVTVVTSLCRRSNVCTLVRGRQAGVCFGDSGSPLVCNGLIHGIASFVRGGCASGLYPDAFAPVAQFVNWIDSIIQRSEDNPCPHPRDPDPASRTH
Description: Protease (100 nM) HNE PR3 GzmK GzmA
Protease (100 nM) GzmA GzmK
Supplementary Figure 2. Cross-reactivity of probes. (A) Labeling of GzmA, GzmK, PR3, and HNE
(100 nM, 2 h, 37 °C) by 100 nM of 5 and 6. (B) Labeling of GzmA and GzmK (100 nM, 2 h, 37 °C) by
100 nM of 3 – 6. (C) Concentration-dependent labeling of GzmA and GzmK (100 nM, 2 h, 37 °C) by 5 and
6. Protein samples were analyzed by SDS-PAGE and in-gel fluorescence scanning for Cy5 signal.
Protein loading was confirmed by SYPRO Ruby staining. […]

Row | Substance | Labeling of mGzmA (in-gel Cy5 fluorescence) (mouse GzmA (mGzmA)) | Labeling of NE (cross-reactivity) (neutrophil elastase (NE)) | Concentration dependence of labeling of mGzmA (mouse GzmA (mGzmA); probe 1, 0.5, 0.2 µM, in-gel fluorescence)
1 | GFFR [compound 7] | lower labeling efficiency for both hGzmA and mGzmA compared with probes 5 and 6 | – | –
2 | IGNR [compound 5] | – | Neither probe 5 nor 6 showed detectable labeling | –
3 | [Tic]G[Oic]R [compound 6] | efficiently (and slightly more strongly than 5) labeled | Neither probe 5 nor 6 showed detectable labeling | concentration‐dependent labeling of mGzmA
